Measurements reported in BindingDB's records for patent US20230271964 (AstraZeneca, 2023).

Assays:
Adenosine receptor A1 = molecular target: T1, Adenosine receptor A1 (Homo sapiens, UniProt P30542); experiment: Adenosine Receptor Binding Assay
T1 sequence (P30542 whole entry): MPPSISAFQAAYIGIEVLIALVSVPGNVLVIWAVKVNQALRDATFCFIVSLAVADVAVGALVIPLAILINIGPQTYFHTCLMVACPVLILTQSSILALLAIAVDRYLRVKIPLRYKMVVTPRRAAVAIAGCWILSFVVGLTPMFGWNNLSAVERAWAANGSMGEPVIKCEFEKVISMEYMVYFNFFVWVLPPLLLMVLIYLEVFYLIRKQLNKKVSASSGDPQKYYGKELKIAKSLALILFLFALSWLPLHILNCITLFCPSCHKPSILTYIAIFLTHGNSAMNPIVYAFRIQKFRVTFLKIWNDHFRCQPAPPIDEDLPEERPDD
Method: (§1) Inhibition binding assays were performed using 0.2 µg of membranes prepared from HEK293 cells infected with BacMam human adenosine A2A receptor or 1.4 µg of membranes prepared from HEK293 cells infected with BacMam human adenosine A1 receptor. Membranes were incubated in 50 mM Tris-HCl (HEK293-hA2A; pH 7.4) or 50 mM Tris-HCl, 100 mM NaCl, 10 mM MgCl2 (CHO-hA1; pH 7.4) in the presence of varying concentrations of test compound and 1 nM [3H]ZM241385 (HEK293-hA2A) or [3H]DPCPX (CHO-hA1) at 25° C. for 1 h. The assay was then terminated by rapid filtration onto GF/B grade Unifilter plates using a TomTec cell harvester, followed by 5 × 0.5 ml washes with ddH2O. […] Bound radioactivity was determined by liquid scintillation counting and inhibition curves were analysed using a four-parameter logistic equation. IC50 values were converted to Ki values with the Cheng-Prusoff equation using a KD value derived from saturation binding studies.

Adenosine receptor A2a = Adenosine receptor A2a (Homo sapiens, UniProt P29274); experiment: Adenosine Receptor Binding Assay
Method: as §1

Sequence of Adenosine receptor A2a (P29274 whole entry): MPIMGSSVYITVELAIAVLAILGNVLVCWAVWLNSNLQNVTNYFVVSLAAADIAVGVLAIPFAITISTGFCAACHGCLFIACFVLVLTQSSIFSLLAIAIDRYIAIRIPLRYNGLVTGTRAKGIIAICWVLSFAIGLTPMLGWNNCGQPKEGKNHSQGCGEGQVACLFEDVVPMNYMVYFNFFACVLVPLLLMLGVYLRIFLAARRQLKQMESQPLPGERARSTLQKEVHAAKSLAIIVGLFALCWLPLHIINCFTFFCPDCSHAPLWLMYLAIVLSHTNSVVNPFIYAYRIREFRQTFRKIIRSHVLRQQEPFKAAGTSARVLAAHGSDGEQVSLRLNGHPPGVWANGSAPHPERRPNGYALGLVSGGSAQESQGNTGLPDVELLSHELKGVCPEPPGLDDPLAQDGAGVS

Ki (Adenosine receptor A1): 25.1 nM
Ki (Adenosine receptor A2a): 0.631 nM
Compound: Cc1cc(-c2c(-c3ccccc3)nc(N)n3c(=O)n(Cc4ncc[nH]4)nc23)cc(C)n1 [US20230271964, Example 1-24]
